Assay results taken from patent US6706722B2, “Heteroaryl derivatives and their use as medicaments” (Zentaris AG, priority 2000, dated 2004).

Legend:
[1] = tested on: ovary adenocarcinoma line SKOV-3 (ATCC HTB77); assay: XTT proliferation test (cellular dehydrogenase activity), SKOV-3; type: cell-based; details: Homo sapiens, SK-OV-3, in-vitro cytotoxicity, values determined from 5 substance concentrations, 45 h incubation
Method: (§1) In a proliferation test, the antiproliferative activity of the substance D-43411 was examined using established tumor cell lines. The Cellular Dehydrogenation activity is determined in the test, which enables determination of the vitality of the cell and, indirectly, the cell count. The cell lines used are the human cervical carcinoma cell lines KB/HeLa (ATCC/CCL17), the murine lymphocyte leukemia L1210 (ATCC CCL-219), the human breast adenocarcinoma line MCF7/ATCC HTB22) and the ovary adenocarcinoma line SKOV-3 (ATCC HTB77). These are established cell lines which are very well characterized and were obtained from ATCC and cultured. XTT Test for Cellular Dehydrogenase Activity The adherently growing tumor cell lines HeLa/KB, SKOV-3 and MCF7 and the L1210 leukemia line, which grows in suspension, were cultivated under standard conditions in an incubator with gas inlet at 37° C., 5% CO2 and 95% atmospheric humidity. On Test Day 1, the adherent cells are detached using trypsine/EDTA and pelleted by centrifugation. […] The cell plates are then incubated in the incubator with gas inlet for a further 3 hours, and the optical density (OD490nm) is determined in a photometer. Using the OD490nm obtained, the inhibition is calculated in percent relative to the control. […]

[2] = tested on: murine lymphocyte leukemia L1210 (ATCC CCL-219); assay: XTT proliferation test (cellular dehydrogenase activity), L1210; type: cell-based; details: Mus musculus, in-vitro cytotoxicity, values determined from 5 substance concentrations, 45 h incubation
Method: as §1

[3] = tested on: human cervical carcinoma cell lines KB/HeLa (ATCC/CCL17); assay: XTT proliferation test (cellular dehydrogenase activity), KB/HeLa; type: cell-based; details: in-vitro cytotoxicity, values determined from 5 substance concentrations, 45 h incubation
Method: as §1

[4] = tested on: human breast adenocarcinoma line MCF7 (ATCC HTB22); assay: XTT proliferation test (cellular dehydrogenase activity), MCF7; type: cell-based; details: test period of 48 h
Method: as §1

COc1cc(OC)cc(N2CCN(C(=O)c3c4ccccc4nc4ccccc34)CC2)c1 [D-43411, 1-(3,5-Dimethoxyphenyl)-4-(9-acridinyl-carbonyl)piperazine]
IC50 [1]: < 0.3 ng/mL | IC50 [2]: < 0.3 ng/mL | IC50 [3]: < 0.3 ng/mL | inhibition at 3160 µg/mL ([4]; at 3.16 mg/ml): 18% | IC50 ([4]; in-vitro cytotoxicity, values determined from 5 substance concentrations): > 3160 ng/mL | melting point: 172 to 175 °C
